In PMC11079024, “Identification of a family of species-selective complex I inhibitors as potential anthelmintics” (Nature Communications, 2024):
pIC50: −log10 of the molar value. Where two headings read alike, the source gives them in different places.

Columns and labels:
[1] = molecular target: C. elegans (N2) complex I (NADH:ubiquinone oxidoreductase) (Caenorhabditis elegans, UniProt P24887+Q93873+Q94360); test: biochemical; assay type: biochemical; conditions: for activity at 0.0001 µM / activity at 0.0005 µM / activity at 0.001 µM / activity at 0.0025 µM / activity at 0.005 µM / activity at 0.013 µM / activity at 0.025 µM / activity at 0.063 µM / activity at 0.125 µM / activity at 0.313 µM / activity at 0.625 µM / activity at 1.5 µM / activity at 3 µM / activity at 15 µM / activity at 37.5 µM / activity at 75 µM: read-out: C. elegans mitochondrial complex I activity; for Log IC50 C. elegans complex I: log10 of IC50 in µM, C. elegans mitochondria
In short: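 Mitochondria, 0.2 mg/mL protein, freeze-thawed three times, assayed in 25 mM KPi pH 7.5 with BSA, 80 μM NADH, 60 μM decylubiquinone, 160 μM DCIP, antimycin A and KCN. Rate from initial linear slope of A600 over 15 min. % of solvent control.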

[2] = molecular target: B. taurus (heart) complex I (Bos taurus, UniProt P03887+P17694+P42026); test: biochemical; assay type: biochemical; conditions: for pIC50: B. taurus heart mitochondria, read-out: B. taurus Complex I IC50; for activity at 0.0001 µM / activity at 0.0005 µM / activity at 0.001 µM / activity at 0.0025 µM / activity at 0.005 µM / activity at 0.013 µM / activity at 0.025 µM / activity at 0.063 µM / activity at 0.125 µM / activity at 0.313 µM / activity at 0.625 µM / activity at 1.5 µM / activity at 3 µM / activity at 15 µM / activity at 37.5 µM / activity at 75 µM: read-out: B. taurus mitochondrial complex I activity; for Log IC50 B. taurus complex I: log10 of IC50 in µM, B. taurus mitochondria
In short: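 Complex I activity followed as DCIP reduction (600 nm, 30 s reads, 15 min) with 80 μM NADH and 60 μM decylubiquinone in 25 mM KPi pH 7.5 containing 2 μM antimycin A and 2 mM KCN. Freeze-thawed mouse or bovine heart mitochondria at 0.2 mg/mL; initial-rate percent of solvent control, single-point 100 μM or dose-response.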

L1 wild-type C. elegans = test: microbe, parasite or virus in culture; conditions: Caenorhabditis elegans, read-out: C. elegans KCN Survival Assay LC50, estimated from fitted dose-response curves; mean of at least two biological replicates
[3] = in vitro complex I dose response on C. elegans mitochondria, average of at least two biological replicates, fit in R (DRC), read-out: IC50 C. elegans complex I

Sequence of C. elegans (N2) complex I (NADH:ubiquinone oxidoreductase) (Q94360 17-199): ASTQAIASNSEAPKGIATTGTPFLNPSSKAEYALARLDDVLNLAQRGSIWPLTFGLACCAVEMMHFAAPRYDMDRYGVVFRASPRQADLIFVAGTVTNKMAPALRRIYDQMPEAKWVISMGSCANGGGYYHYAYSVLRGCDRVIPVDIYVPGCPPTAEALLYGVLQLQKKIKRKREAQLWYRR
Sequence of C. elegans (N2) complex I (NADH:ubiquinone oxidoreductase) (P24887 whole entry): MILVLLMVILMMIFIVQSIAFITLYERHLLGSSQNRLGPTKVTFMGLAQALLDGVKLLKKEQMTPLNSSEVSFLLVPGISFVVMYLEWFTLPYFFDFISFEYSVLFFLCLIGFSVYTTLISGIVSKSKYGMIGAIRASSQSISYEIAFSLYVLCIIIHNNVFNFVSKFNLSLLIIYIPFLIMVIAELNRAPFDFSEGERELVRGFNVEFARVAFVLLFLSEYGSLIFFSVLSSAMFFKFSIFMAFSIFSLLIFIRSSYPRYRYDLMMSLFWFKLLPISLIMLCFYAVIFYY
Sequence of C. elegans (N2) complex I (NADH:ubiquinone oxidoreductase) (Q93873 31-482): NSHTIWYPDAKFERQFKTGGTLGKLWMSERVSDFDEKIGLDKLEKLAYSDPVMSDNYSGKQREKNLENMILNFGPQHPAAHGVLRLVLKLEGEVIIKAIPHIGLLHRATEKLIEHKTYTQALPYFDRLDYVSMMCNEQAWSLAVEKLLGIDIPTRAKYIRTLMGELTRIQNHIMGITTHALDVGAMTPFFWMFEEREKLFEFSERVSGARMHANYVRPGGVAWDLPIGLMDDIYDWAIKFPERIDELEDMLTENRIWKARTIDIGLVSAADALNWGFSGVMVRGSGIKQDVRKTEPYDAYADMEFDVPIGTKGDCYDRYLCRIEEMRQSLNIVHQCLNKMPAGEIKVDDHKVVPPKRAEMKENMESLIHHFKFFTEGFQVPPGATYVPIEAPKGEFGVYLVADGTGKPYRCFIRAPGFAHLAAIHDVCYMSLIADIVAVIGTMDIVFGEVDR
Sequence of B. taurus (heart) complex I (P03887 whole entry): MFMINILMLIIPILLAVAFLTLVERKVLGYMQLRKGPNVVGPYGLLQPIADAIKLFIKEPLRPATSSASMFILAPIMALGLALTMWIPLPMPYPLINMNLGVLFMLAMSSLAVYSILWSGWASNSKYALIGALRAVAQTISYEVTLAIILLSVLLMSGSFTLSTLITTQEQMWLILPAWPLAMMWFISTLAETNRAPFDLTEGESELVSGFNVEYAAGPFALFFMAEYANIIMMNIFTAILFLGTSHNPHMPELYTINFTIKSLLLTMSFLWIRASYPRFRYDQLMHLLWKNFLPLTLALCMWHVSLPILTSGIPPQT
Sequence of B. taurus (heart) complex I (P17694 34-463): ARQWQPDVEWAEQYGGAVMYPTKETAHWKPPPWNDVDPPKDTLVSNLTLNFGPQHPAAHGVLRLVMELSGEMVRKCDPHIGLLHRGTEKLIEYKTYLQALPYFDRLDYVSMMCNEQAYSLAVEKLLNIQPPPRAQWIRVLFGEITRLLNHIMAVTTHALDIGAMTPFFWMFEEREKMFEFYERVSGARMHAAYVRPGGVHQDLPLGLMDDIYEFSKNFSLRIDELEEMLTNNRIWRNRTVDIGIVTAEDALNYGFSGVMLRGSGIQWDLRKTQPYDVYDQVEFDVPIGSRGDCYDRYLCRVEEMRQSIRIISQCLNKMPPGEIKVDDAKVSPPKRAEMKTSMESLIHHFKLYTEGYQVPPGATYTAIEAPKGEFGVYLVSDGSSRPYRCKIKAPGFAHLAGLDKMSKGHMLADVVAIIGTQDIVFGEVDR
Sequence of B. taurus (heart) complex I (P42026 38-216): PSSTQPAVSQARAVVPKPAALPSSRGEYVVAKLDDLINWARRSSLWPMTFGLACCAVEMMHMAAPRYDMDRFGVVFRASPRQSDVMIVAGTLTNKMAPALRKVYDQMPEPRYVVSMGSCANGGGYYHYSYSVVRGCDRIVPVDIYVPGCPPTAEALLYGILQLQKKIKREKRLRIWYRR

Row | Structure (SMILES) | activity at 0.0001 µM [1] [%] | activity at 0.0005 µM [1] [%] | activity at 0.001 µM [1] [%] | activity at 0.0025 µM [1] [%] | activity at 0.005 µM [1] [%] | activity at 0.013 µM [1] [%] | activity at 0.025 µM [1] [%] | activity at 0.063 µM [1] [%] | activity at 0.125 µM [1] [%] | activity at 0.313 µM [1] [%] | activity at 0.625 µM [1] [%] | activity at 1.5 µM [1] [%] | activity at 3 µM [1] [%] | activity at 15 µM [1] [%] | activity at 37.5 µM [1] [%] | activity at 75 µM [1] [%] | pIC50 [1, 3] | Log IC50 C. elegans complex I [1] [µM] | activity at 0.0001 µM [2] [%] | activity at 0.0005 µM [2] [%] | further results
1 | Nc1nc2ccccc2n1CCOc1ccc(Br)cc1 [Compound 5842535] | 80 | 92.9 | 87.5 | 88.5 | 89.3 | 88.3 | 81.7 | 79.5 | 81.6 | 76.9 | 83.9 | 76.4 | 65 | 17.8 | 0.13 | 0 | 5.21 | 0.79 | 89.6 | 91.9 | pIC50 ([1]; wild-type C. elegans mitochondria, read-out: C. elegans Complex I IC50): 5.21; pIC50 [2]: 4.90; activity at 0.001 µM [2]: 90.7%; activity at 0.0025 µM [2]: 94.2%; activity at 0.005 µM [2]: 96.1%; activity at 0.013 µM [2]: 92.4%; activity at 0.025 µM [2]: 87.8%; activity at 0.063 µM [2]: 92.4%; activity at 0.125 µM [2]: 92%; activity at 0.313 µM [2]: 85.5%; activity at 0.625 µM [2]: 84.7%; activity at 1.5 µM [2]: 82.8%; activity at 3 µM [2]: 67.2%; activity at 15 µM [2]: 33.6%; activity at 37.5 µM [2]: 3.2%; activity at 75 µM [2]: 1.7%; Log IC50 B. taurus complex I [2]: 1.10 µM; LC50 (L1 wild-type C. elegans): 26.7 µM
2 | Cc1ccc(OCCn2cnc3ccccc32)c(C)c1 [Compound 7706808] | 101 | 107 | 103 | 109 | 101 | 107 | 105 | 101 | 94.3 | 97.4 | 70.9 | 55.5 | 44.2 | 16.3 | 13.2 | 13.5 | 5.84 | 0.16 | 97.5 | 94.8 | pIC50 ([1]; wild-type C. elegans mitochondria, estimated from fitted dose-response curves, read-out: C. elegans Complex I IC50): 5.84; pIC50 ([2]; estimated from fitted dose-response curves): 5.07; activity at 0.001 µM [2]: 99.1%; activity at 0.0025 µM [2]: 97%; activity at 0.005 µM [2]: 95.6%; activity at 0.013 µM [2]: 97.8%; activity at 0.025 µM [2]: 90.5%; activity at 0.063 µM [2]: 96%; activity at 0.125 µM [2]: 93.5%; activity at 0.313 µM [2]: 91.4%; activity at 0.625 µM [2]: 82.8%; activity at 1.5 µM [2]: 81.2%; activity at 3 µM [2]: 69.4%; activity at 15 µM [2]: 30.6%; activity at 37.5 µM [2]: 11.4%; activity at 75 µM [2]: 6.37%; Log IC50 B. taurus complex I [2]: 0.93 µM; LC50 (L1 wild-type C. elegans): 12 µM
